For the first test, the target named is human P2X3 receptor (Homo sapiens (Human), UniProt P56373). Nature of the test: Evaluation of human P2X3 receptor inhibitory activity (Fluo-3 calcium fluorescence, FDSS 3000, ATP stimulation).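 Note: stimulus was 50 nM ATP with fluorescence followed for 3 min, and the response per well was peak post-ATP fluorescence divided by the reading at measurement start.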 The format is cell-based. The settings on record: C6BU-1 cells stably expressing human P2X3 receptor.
Chain of human P2X3 receptor (P56373 whole entry): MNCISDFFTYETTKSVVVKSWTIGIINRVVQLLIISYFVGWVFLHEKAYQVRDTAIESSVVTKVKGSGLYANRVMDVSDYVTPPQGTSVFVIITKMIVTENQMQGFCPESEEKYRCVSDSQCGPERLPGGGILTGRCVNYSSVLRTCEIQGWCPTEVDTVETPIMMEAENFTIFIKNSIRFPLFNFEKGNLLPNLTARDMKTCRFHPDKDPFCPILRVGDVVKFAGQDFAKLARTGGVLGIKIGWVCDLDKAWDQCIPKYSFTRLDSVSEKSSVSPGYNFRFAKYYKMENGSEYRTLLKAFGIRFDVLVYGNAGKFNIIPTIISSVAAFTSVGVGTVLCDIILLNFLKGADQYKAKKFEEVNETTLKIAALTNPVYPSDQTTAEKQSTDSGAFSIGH
As to `COC(=O)[C@@H](C)Cn1c(=O)[nH]/c(=N\c2ccc(CC(C)C)c(Cl)c2)n(Cc2ccc(C)cc2)c1=O` [Compound I-1371], the 50% inhibitory concentration (IC50) came to 9 nM.

In the case of `Cc1cc(/N=c2\[nH]c(=O)n(CC3(C(=O)O)CC3)c(=O)n2Cc2ccc(Cl)cc2)ccc1OC(C)C` [Compound I-0698], the IC50 stood at 26 nM.

Take `CCn1c(=O)[nH]/c(=N\c2ccc(Oc3ccc(CO)nc3)cc2)n(Cc2ccc(Cl)cc2)c1=O` [Compound I-2114]: the IC50 was 7 nM.

Turning to `CCOC(=O)CCn1c(=O)[nH]/c(=N\c2ccc(OC(C)C)c(OC)c2)n(Cc2ccc(Cl)cc2)c1=O` [Compound I-1248], the IC50 was found to be 6 nM.

With `C[C@@H](Oc1ccc(/N=c2\[nH]c(=O)n(CC(=O)NCCO)c(=O)n2Cc2ccc(Cl)cc2)cc1)C(F)(F)F` [Compound I-1999], the IC50 came to 28 nM.

As to `COc1cc(/N=c2\[nH]c(=O)n(CC(C)(C)C(=O)O)c(=O)n2Cc2ccc(C)cc2)ccc1OC(C)C` [Compound I-1280], the IC50 was 27 nM.

`CCn1c(=O)[nH]/c(=N\c2ccc(Oc3ccc(C(N)=O)nc3)cc2)n(Cc2ccc(Cl)cc2)c1=O` [Compound I-2119]: the IC50 is 1 nM.

Regarding `CCn1c(=O)[nH]/c(=N\c2ccc(OCc3noc(C)n3)cc2)n(Cc2ccc(Cl)cc2)c1=O` [Compound I-2200], the IC50 came to 545 nM.

On to `CCn1c(=O)[nH]/c(=N\c2ccc(Oc3ccc(C(=O)O)nc3)cc2)n(Cc2ccc(C)cc2)c1=O` [Compound I-2116], for which the IC50 was 15 nM.

On to `O=c1[nH]/c(=N\c2ccc(Oc3cc(CO)on3)cc2)n(Cc2ccc(Cl)cc2)c(=O)n1CCO` [Compound I-2118], for which the IC50 stood at 35 nM.

Regarding `COC(=O)[C@@H](C)Cn1c(=O)[nH]/c(=N\c2ccc(NS(C)(=O)=O)cc2)n(Cc2ccc(C)cc2)c1=O` [Compound I-1416], the IC50 came to 141 nM.

Take `CCOC(=O)CCn1c(=O)[nH]/c(=N\c2ccc(CC(C)C)c(OC)c2)n(Cc2ccc(C)cc2)c1=O` [Compound I-1361]: the IC50 stood at 15 nM.

Take `COc1cc(/N=c2\[nH]c(=O)n(CCO)c(=O)n2Cc2ccc(Cl)cc2)ccc1OC(C)C` [Compound I-2006]: the IC50 was 36 nM.

For the compound `Cc1nc2ccc(/N=c3\[nH]c(=O)n([C@H](C)[C@H](C)C(=O)O)c(=O)n3Cc3ccc(Cl)cc3)cc2s1` [Compound I-1467], the IC50 amounted to 12 nM.

`CCCc1ccc(/N=c2\[nH]c(=O)n(C[C@H](C)C(=O)O)c(=O)n2Cc2ccc(Cl)cc2)cc1C` [Compound I-1213]: the IC50 worked out at 104 nM.

For the compound `Cc1ccc(Cn2c(=O)n(CC(C)(C)C(=O)O)c(=O)[nH]/c2=N\c2ccc(CC(C)C)c(Cl)c2)cc1` [Compound I-1462], the IC50 worked out at 3 nM.

Consider `Cc1ccc(Cn2c(=O)n(C[C@H](C)C(=O)O)c(=O)[nH]/c2=N\c2ccc(OC3CCCCC3)cc2)cc1` [Compound I-1222], for which the IC50 was 17 nM.

In the case of `Cc1ccc(Cn2c(=O)n(C[C@H](C)C(=O)O)c(=O)[nH]/c2=N\c2ccc(OC3CCCC3)nc2)cc1` [Compound I-1226], the IC50 came out at 122 nM.

On to `CCOc1ccc(/N=c2\[nH]c(=O)n(C[C@H](C)C(=O)OC)c(=O)n2Cc2ccc(C)cc2)cc1Cl` [Compound I-0678], for which the IC50 amounted to 8 nM.

In the case of `CCn1c(=O)[nH]/c(=N\c2ccc(Oc3cncc(C(=O)O)c3)cc2)n(CC2CCC(C)(C)CC2)c1=O` [Compound I-2207], the IC50 was 69 nM.

On to `Cc1ccc(Cn2c(=O)n(CCC(=O)O)c(=O)[nH]/c2=N\c2ccc(CC(C)C)c(C)c2)cc1` [Compound I-1224], for which the IC50 came to 54 nM.

For the compound `COc1cc(/N=c2\[nH]c(=O)n(C[C@H](C)C(=O)O)c(=O)n2Cc2ccc(C)cc2)ccc1Br` [Compound I-1244], the IC50 was found to be 473 nM.

`CC(C)Oc1ccc(/N=c2\[nH]c(=O)n(Cc3ccc(=O)[nH]c3)c(=O)n2Cc2ccc(Cl)cc2)cc1F` [Compound I-0649]: the half-inhibitory concentration (IC50) was 21 nM.

As for `C=C(Cn1c(=O)[nH]/c(=N\c2ccc(OC(C)C)c(C)c2)n(Cc2ccc(Cl)cc2)c1=O)C(=O)OCC` [Compound I-0779], the IC50 is 16 nM.

The same test, now with this note: C6BU-1 cells stably expressing human P2X3 receptor, Fluo-3 fluorescence, FDSS 3000.
On to `COC(=O)[C@@H](C)Cn1c(=O)[nH]/c(=N\c2ccc(C=C(C)C)c(Cl)c2)n(Cc2ccc(Cl)cc2)c1=O` [Compound I-0955], for which the IC50 stood at 28 nM.

For the compound `CCOc1ccc(/N=c2\[nH]c(=O)n(C[C@@H](C)C(=O)O)c(=O)n2Cc2ccc(C)cc2)cc1Cl` [Compound I-1107], the IC50 was 43 nM.

Turning to `Cc1cc(/N=c2\[nH]c(=O)n([C@@H](C)[C@H](C)C(=O)O)c(=O)n2Cc2ccc(Cl)cc2)ccc1OC(C)C` [Compound I-1026], the IC50 was 182 nM.

As to `Cc1ccc(Cn2c(=O)n(C[C@H](C)C(=O)O)c(=O)[nH]/c2=N\c2ccc(OC(C)C)c(OC(C)C)c2)cc1` [Compound I-1136], the IC50 turned out to be 204 nM.

On to `CCc1nc2ccc(/N=c3\[nH]c(=O)n(CC(C)(C)C(=O)OC)c(=O)n3Cc3ccc(Cl)cc3)cc2s1` [Compound I-1572], for which the IC50 was 5 nM.

Consider `C[C@@H](Cn1c(=O)[nH]/c(=N\c2ccc(O[C@H](C)C(F)(F)F)cc2)n(Cc2ccc(Cl)cc2)c1=O)C(=O)O` [Compound I-0932], for which the IC50 worked out at 21 nM.

For the compound `CC(C)Oc1ccc(/N=c2\[nH]c(=O)n(Cc3cc(O)no3)c(=O)n2Cc2ccc(Cl)cc2)cc1F` [Compound I-1767], the IC50 was found to be 55 nM.

As for `COc1ccc(Oc2ccc(/N=c3\[nH]c(=O)n(CCCO)c(=O)n3Cc3ccc(Cl)cc3)cc2)cn1` [Compound I-1733], the IC50 was 3 nM.

Take `C/C=C/c1ccc(Cn2c(=O)n(C[C@H](C)C(=O)O)c(=O)[nH]/c2=N\c2ccc(OC(C)C)cc2)cc1` [Compound I-1160]: the IC50 turned out to be 973 nM.

As for `C[C@@H](C(=O)O)[C@H](C)n1c(=O)[nH]/c(=N\c2ccc3oc(-c4ccccc4)nc3c2)n(Cc2ccc(Cl)cc2)c1=O` [Compound I-1814], the IC50 was found to be 299 nM.

With `Cc1nc2ccc(/N=c3\[nH]c(=O)n(CCC4COC(C)(C)OC4)c(=O)n3Cc3ccc(Cl)cc3)cc2s1` [Compound I-1852], the IC50 came to 5 nM.

In the case of `Cc1cc(/N=c2\[nH]c(=O)n(C3CCN(CC(=O)O)CC3)c(=O)n2Cc2ccc(Cl)cc2)ccc1OC(C)C` [Compound I-1649], the IC50 is 285 nM.

For the compound `COC(=O)Cn1c(=O)[nH]/c(=N\c2ccc(Oc3ccnc(O)c3)cc2)n(Cc2ccc(Cl)cc2)c1=O` [Compound I-1903], the IC50 is 4 nM.

Still in this test, the particulars now being: human P2X3 receptor, Test Example 1.
Take `O=C(Cn1c(=O)[nH]/c(=N\c2ccc(Oc3cnsn3)cc2)n(Cc2ccc(Cl)cc2)c1=O)NCCO` [Compound I-2677]: the IC50 is 7 nM.

In the case of `CC(C)Oc1ccc(/N=c2\[nH]c(=S)n(C(C)C)c(=O)n2Cc2ccc(Cl)cc2)cc1` [Compound I-2254, 1-(4-chlorobenzyl)-3-isopropyl-6-(4-isopropoxyphenylimino)-4-thioxo-1,3,5-triazinane-2-one], the IC50 was 78 nM.

In the case of `Cc1ccc(Cn2c(=O)n(CC(F)(F)C(=O)O)c(=O)[nH]/c2=N\c2ccc(OC(C)C)c(C)c2)cc1` [Compound I-0857], the IC50 was 19 nM.

Consider `CCn1c(=O)[nH]/c(=N\c2ccc(Oc3ccnnc3)cc2)n(Cc2ccc(C)cc2)c1=O` [Compound I-2599], for which the IC50 turned out to be 4 nM.

Regarding `Cn1c(=O)[nH]/c(=N\c2ccc(Oc3cc(C#N)ccn3)cc2)n(Cc2ccc(Cl)cc2)c1=O` [Compound I-2341], the IC50 was determined as 10 nM.

With `COC(=O)[C@@H](C)Cn1c(=O)[nH]/c(=N\c2ccc(CC(C)(C)F)c(Cl)c2)n(Cc2ccc(C)cc2)c1=O` [Compound I-1528], the IC50 came to 32 nM.

Consider `CCOC(=O)CCn1c(=O)[nH]/c(=N\c2ccc3nc(C)sc3c2)n(Cc2ccc(C)cc2)c1=O` [Compound I-1519], for which the IC50 stood at 2 nM.

With `O=C(O)Cn1c(=O)[nH]/c(=N\c2ccc(Oc3ccnnc3)cc2)n(Cc2ccc(Cl)cc2)c1=O` [Compound I-2665], the IC50 is 85 nM.

On to `O=C(Cn1c(=O)[nH]/c(=N\c2ccc(Oc3ccon3)cc2)n(Cc2ccc(Cl)cc2)c1=O)NCC(F)(F)F` [Compound I-2681], for which the IC50 amounted to 4 nM.

On to `CCOC(=O)C1(Cn2c(=O)[nH]/c(=N\c3ccc4oc(CC)c(C)c4c3)n(Cc3ccc(Cl)cc3)c2=O)CC1` [Compound I-1538], for which the IC50 was 17 nM.

With `CCn1c(=O)[nH]/c(=N\c2ccc(Oc3cccc(-c4nnn[nH]4)n3)cc2)n(Cc2ccc(Cl)cc2)c1=O` [Compound I-2602], the concentration for half-maximal inhibition (IC50) was 2 nM.

For `CCc1cc2cc(/N=c3\[nH]c(=O)n(CC4COC(C)(C)OC4)c(=O)n3Cc3ccc(Cl)cc3)ccc2o1` [Compound I-2312], the IC50 came to 5 nM.

In the case of `Cc1nsc(Oc2ccc(/N=c3\[nH]c(=O)n(CC(CO)CO)c(=O)n3Cc3ccc(F)cc3)cc2)n1` [Compound I-2605], the IC50 amounted to 14 nM.

Take `CCn1c(=O)[nH]/c(=N\c2ccc(Oc3cncc(C(N)=O)n3)cc2)n(Cc2ccc(C)cc2)c1=O` [Compound I-2472]: the IC50 turned out to be 3 nM.

As to `Cc1nsc(Oc2ccc(/N=c3\[nH]c(=O)n(CC(C)(CO)CO)c(=O)n3Cc3ccc(Cl)cc3)cc2)n1` [Compound I-2576], the IC50 stood at 3 nM.

`CCn1c(=O)[nH]/c(=N\c2ccc(Oc3nccc(C(N)=O)n3)cc2)n(Cc2ccc(Cl)cc2)c1=O` [Compound I-2311]: the IC50 worked out at 8 nM.

As for `O=c1[nH]/c(=N\c2ccc(Oc3cccc(F)n3)cc2)n(Cc2ccc(F)cc2)c(=O)n1CC(CO)CO` [Compound I-2583], the IC50 is 15 nM.

With `CNC(=O)c1cc(Oc2ccc(/N=c3\[nH]c(=O)n(C4CC4)c(=O)n3Cc3ccc(Cl)cc3)cc2)ccn1` [Compound I-2309], the IC50 came out at 2 nM.

With `O=C(O)CCn1c(=O)[nH]/c(=N\c2ccc(Oc3ccc(O)nc3)cc2)n(Cc2ccc(Cl)cc2)c1=O` [Compound I-1535], the 50% inhibitory concentration (IC50) came to 28 nM.

`CCn1c(=O)[nH]/c(=N\c2ccc(Oc3ccnc(NCC(N)=O)c3)cc2)n(Cc2ccc(Cl)cc2)c1=O` [Compound I-2554]: the concentration for half-maximal inhibition (IC50) worked out at 7 nM.

For the compound `COC(=O)[C@@H](C)Cn1c(=O)[nH]/c(=N\c2ccc(C3CC3)c(Cl)c2)n(Cc2ccc(C)cc2)c1=O` [Compound I-1487], the IC50 was 106 nM.

In the case of `CCn1c(=O)[nH]/c(=N\c2ccc(Oc3cccc(/C=C/C(=O)OC)c3)cc2)n(Cc2ccc(C)cc2)c1=O` [Compound I-2327], the IC50 stood at 8 nM.

Usually IC50 stands for the concentration that gives 50% inhibition.

The values are drawn from patent publication US9718790B2, “Triazine derivative and pharmaceutical composition having an analgesic activity comprising the same” (SHIONOGI & CO., LTD., priority 2010, dated 2017).
